Measured values from ChEMBL document CHEMBL1201862, “PubChem BioAssay data set” (2004).
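All cell lines were grown in 96-well plates and treated with compound for 48 hours. Here, GI50 denotes the concentration required for 50% inhibition of growth.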 Active and inactive are the calls of the source. Rule as the data show it: active = GI50 up to about 1.1 µM and inactive = higher.

Key:
Assay in all cases: growth of human tumour cells (NCI), 48 h
[1] = system: HOP-62
[2] = system: HT-29
[3] = system: A549
[4] = system: SK-MEL-28
[5] = system: NCI-H522
[6] = system: NCI-H23
[7] = system: HL-60
[8] = system: SW-620
[9] = system: COLO 205
[10] = system: UACC-62
[11] = system: MOLT-4
[12] = system: OVCAR-4
[13] = system: SNB-19
[14] = system: ACHN
[15] = system: SN12C
[16] = system: HCT-116
[17] = system: OVCAR-3
[18] = system: KM12
[19] = system: UACC-257
[20] = system: SK-OV-3

SMILES	GI50 [1]	GI50 [2]	GI50 [3]	GI50 [4]	GI50 [5]	GI50 [6]	GI50 [7]	GI50 [8]	GI50 [9]	GI50 [10]	GI50 [11]	GI50 [12]	GI50 [13]	GI50 [14]	GI50 [15]	GI50 [16]	GI50 [17]	GI50 [18]	GI50 [19]	GI50 [20]
CCOC(=O)C1C=C2O[C@@H]3OC4(CCCCC4)O[C@@H]3C2[C@H]2C(=O)C=CC(=O)[C@@]12C(=O)OC (stereo not given in full)	20 µM (inactive)	6.9 µM (inactive)	14.5 µM (inactive)	15.6 µM (inactive)	3.98 µM (inactive)	16.3 µM (inactive)	2.25 µM (inactive)	12.8 µM (inactive)	8.61 µM (inactive)	16.8 µM (inactive)	2.7 µM (inactive)	9.31 µM (inactive)	8.38 µM (inactive)	18.1 µM (inactive)	16.7 µM (inactive)	6.61 µM (inactive)	7.89 µM (inactive)	12.3 µM (inactive)	16.8 µM (inactive)	18.2 µM (inactive)
CC(C)=CC1CC(=[N+]=[N-])C(=O)C1(C)C (stereo not given)	> 100 µM (inactive)	> 31.6 µM (inactive)	> 100 µM (inactive)	> 100 µM (inactive)	> 80.7 µM (inactive)	> 100 µM (inactive)	> 100 µM (inactive)	> 100 µM (inactive)	> 100 µM (inactive)	> 100 µM (inactive)	> 100 µM (inactive)	> 100 µM (inactive)	> 100 µM (inactive)	> 100 µM (inactive)	> 100 µM (inactive)	> 100 µM (inactive)	> 100 µM (inactive)	> 100 µM (inactive)	> 100 µM (inactive)	> 100 µM (inactive)
O=C1CS(=O)(=O)C(c2cccc(Oc3ccccc3)c2)N1c1ccccc1 (stereo not given)	36.7 µM (inactive)	26.5 µM (inactive)	35.1 µM (inactive)	26.2 µM (inactive)	18.9 µM (inactive)	25.1 µM (inactive)	21.1 µM (inactive)	31.5 µM (inactive)	20 µM (inactive)	12.4 µM (inactive)	20.4 µM (inactive)	26.1 µM (inactive)	43.3 µM (inactive)	23.7 µM (inactive)	19.4 µM (inactive)	16.3 µM (inactive)	20.7 µM (inactive)	25.8 µM (inactive)	18.6 µM (inactive)	35.2 µM (inactive)
CN(CCCCCl)P(=O)(OCc1ccc([N+](=O)[O-])o1)OC[C@H]1O[C@@H](n2cc(F)c(=O)[nH]c2=O)C[C@@H]1O (stereo not given in full)	0.145 µM (active)	0.502 µM (active)	0.0301 µM (active)	21.2 µM (inactive)	3.77 µM (inactive)	0.989 µM (active)	0.766 µM (active)	17.3 µM (inactive)	< 0.01 µM (active)	0.437 µM (active)	0.583 µM (active)	12.8 µM (inactive)	1.85 µM (inactive)	0.0365 µM (active)	0.107 µM (active)	0.995 µM (active)	0.52 µM (active)	12.4 µM (inactive)	30.8 µM (inactive)	0.372 µM (active)
O=C1/C(=C\c2ccccc2)c2ccccc2N1Cc1ccccc1	13.1 µM (inactive)	6.15 µM (inactive)	11.6 µM (inactive)	11.1 µM (inactive)	10.1 µM (inactive)	10.7 µM (inactive)	4.08 µM (inactive)	9.84 µM (inactive)	16.6 µM (inactive)	7.1 µM (inactive)	2.67 µM (inactive)	12.6 µM (inactive)	10.3 µM (inactive)	12.5 µM (inactive)	11.9 µM (inactive)	4.72 µM (inactive)	3.99 µM (inactive)	6.04 µM (inactive)	10.9 µM (inactive)	11.1 µM (inactive)
Cn1c2c3ccc(Cl)cc3nc-2c(Cl)c2ccccc21	16.4 µM (inactive)	15.3 µM (inactive)	27.3 µM (inactive)	17.7 µM (inactive)	17.9 µM (inactive)	13.4 µM (inactive)	24.2 µM (inactive)	11.9 µM (inactive)	12.2 µM (inactive)	20.4 µM (inactive)	19 µM (inactive)	17.1 µM (inactive)	22.9 µM (inactive)	13.5 µM (inactive)	14.4 µM (inactive)	1.71 µM (inactive)	14 µM (inactive)	16.9 µM (inactive)	17.5 µM (inactive)	49.4 µM (inactive)
